Measurements from US20070054325A1, “Materials and methods for screening modulators of neural regeneration” (REGLIA, priority 2005, published 2007).
Like-named read-outs stand apart in the source and are kept apart here. Bridges are numbered along the chain shown (N, C = ends). Where no end group is shown, it is not given here.

Experiments:
C3aR = biological target: T1, C3aR (Mus musculus, UniProt O09047); experiment: Basal neurogenesis in mice treated with a C3aR antagonist (BrdU/Dcx/NeuN immunostaining); format: in vivo, wild-type C57BL/6 mice; settings: for number of Dcx^posBrdU^pos cells, lower compared to control mice: 500 μg/mouse twice daily for 10 days
T1 construct: wild-type C57BL/6 mice (8 week old male; n=12) were injected with a nonpeptide antagonist of the C3aR; from tissue; host or cells: living wild-type C57BL/6 mice; read-out in brain (SVZ, dentate gyrus, olfactory bulb)
T1 sequence (O09047 1-477): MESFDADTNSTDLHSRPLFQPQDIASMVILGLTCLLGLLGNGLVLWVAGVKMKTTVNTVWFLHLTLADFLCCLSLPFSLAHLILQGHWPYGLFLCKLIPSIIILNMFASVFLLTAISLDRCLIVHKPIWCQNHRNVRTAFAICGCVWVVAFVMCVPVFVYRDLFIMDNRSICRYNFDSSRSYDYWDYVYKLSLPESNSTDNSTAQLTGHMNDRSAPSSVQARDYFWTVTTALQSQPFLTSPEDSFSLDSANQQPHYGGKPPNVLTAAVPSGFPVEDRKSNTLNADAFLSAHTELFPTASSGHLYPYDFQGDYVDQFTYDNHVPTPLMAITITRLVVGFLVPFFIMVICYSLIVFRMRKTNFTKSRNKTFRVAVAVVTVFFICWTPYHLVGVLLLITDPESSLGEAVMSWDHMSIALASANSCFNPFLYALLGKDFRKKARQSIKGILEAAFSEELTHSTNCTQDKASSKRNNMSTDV
Protocol: To assess whether signaling through the C3aR plays a role in basal neurogenesis, wild-type C57BL/6 mice (8 week old male; n=12) were injected with a nonpeptide antagonist of the C3aR, SB290157 (Calbiochem, San Diego, Calif., USA; 500 μg/mouse; Ames et al., J. Immunol. 166:6341-6348, 2001) diluted in PBS and DMSO (1.16% v/v) twice daily or vehicle for 10 days. Control mice (n=10) were given PBS and DMSO (1.16% v/v). During the first 7 days, all the mice also received bromodeoxyuridine (BrdU) (Sigma-Aldrich; 200 mg/kg). On day 10 after the first injection, the mice were deeply anesthetized and perfused.
Mouse brains were embedded in paraffin, cut into 8-μm sections, and stained with hematoxylin and erytrosin. For immunohistochemical evaluation, the sections were deparaffinized, permeabilized in 0.01 M citric acid (pH 6.0), heated twice for 5 min each in a microwave oven for antigen retrieval, and blocked with 0.1% BSA and 0.05% Triton-X-100 in PBS. Negative control was performed by omitting the primary antibody, unless stated otherwise.
Newly formed neurons were visualized by staining with biotinylated mouse anti-NeuN monoclonal antibody (Chemicon, Temecula, Calif., USA; 1:100) followed by Cy3-conjugated streptavidin (Sigma-Aldrich; 1:100) or Alexa633-conjugated streptavidin (Molecular Probes; 1:500) in combination with FITC-conjugated rat anti-BrdU antibody (Accurate Chemical, Westbury, N.Y., USA; 1:75). NeuN^pos BrdU^pos cells were counted in the penumbra on 2-3 sections per mouse. BrdU^pos cells were also counted in the SVZ. The sections were further stained with mouse anti-BrdU antibody (DAKO; 1:100) and Alexa 568 conjugated goat anti-mouse Ig (Molecular Probes; 1:500). BrdU^pos and NeuN^posBrdU^pos cells were counted in one hemisphere on 4-12 sections 160 μm apart/region in the granular layer of the olfactory bulb (bregma 3.2 mm to 4.28 mm) and dentate gyrus subgranular zone (bregma −1.34 mm to −3.64 mm).
Migrating neural progenitor cells were detected with goat anti-doublecortin (Dcx) antibody (Santa Cruz Biotechnology, Santa Cruz, Calif., USA; 1:50) followed by Alexa488-conjugated donkey anti-goat Ig (Molecular Probes; 1:100). Sections were further stained with mouse anti-BrdU antibody. BrdU^pos and Dcx^posBrdU^pos cells were counted in one hemisphere on 4-12 sections 160 μm apart/region in the SVZ (bregma 0.14 mm to 1.1 mm), the granular layer of the olfactory bulb (bregma 3.2 mm to 4.28 mm), and dentate gyrus subgranular zone (bregma −1.34 mm to −3.64 mm).
Proliferating migrating neuroblasts (Dcx^posBrdU^pos), newly formed neurons (NeuN^posBrdU^pos) and BrdU^pos cells were counted in the two principal sites of adult neurogenesis, SVZ and the dentate gyrus subgranular zone of the hippocampus, as well as in the olfactory bulb, the final destination for the neuroblasts originating in SVZ under basal conditions. In all three regions, the number of Dcx^posBrdU^pos cells was reduced in mice that received the C3aR antagonist. […] Also, the fraction of these cells among the BrdU^pos cells was reduced in the C3aR antagonist-treated mice: 19.0±1.1 vs. 26.7±1.7%, P<0.005 in the olfactory bulb; 13.1±0.6 vs. 17.3±0.8%, P<0.0005 in the dentate gyrus subgranular zone; and 26.4±0.8 vs. 31.4±1.2%, P<0.005 in the SVZ. […] The fraction of these cells among the BrdU^pos cells was reduced in the C3aR antagonist treated mice: 1.2±0.1 vs. 1.7±0.1%, P<0.005 in the olfactory bulb; 1.7±0.1 vs. 2.3±0.2%, P<0.05 in the dentate gyrus subgranular zone. The number of BrdU^pos cells in any of the regions was not affected by the C3aR antagonist treatment.

[1] = system: Neural stem cells, e.g., HCNA 94/GFPH; experiment: Neural stem cell differentiation assay (MAP2 immunostaining, DAPI); format: cell-based
Protocol: It was previously known that it was possible to modulate cells, other than neurons, via C3aR. Accordingly, C3aR antagonists blocked modulation via the receptor and C3aR agonists stimulated the receptor. To evaluate the effect of C3aR agonists on neural stem cell differentiation in vitro, a neural stem cell differentiation assay was performed as set out below.
Neural stem cells, e.g., HCNA 94/GFPH, were cultured with a C3aR agonist (C3a) at a concentration of either 10 nM or 100 nM for three to ten days in the presence and absence of a known C3aR antagonist, SB290157 (Ames at al., J. Immunol. 166: 6341-6348, 2001), at a concentration of 5-10 μM, administered to the culture either prior to or at the same time as the C3aR agonist. The number of cells that differentiated into neurons was measured by immunostaining with antibodies against MAP2 (Sigma) and visualized using 4′,6-Diamidino-2-phenylindole (DAPI) staining. A compound is regarded as a stimulator of neural stem cell differentiation into neurons if it stimulates differentiation into neurons at a rate at least 25% greater than control cells (cultured in the presence of medium alone). The effect of the C3aR agonist on neural stem cell differentiation was not blocked by SB290157 (see Table 5 below). Thus, SB290157 was not effective in inhibited neuronal cell differentiation at the concentrations tested.

ETBR = settings: Rogers et al., Glia 2003, cited from earlier work

Molecule: NC(N)=NCCC[C@H](NC(=O)COCC(c1ccccc1)c1ccccc1)C(=O)O [SB290157]
- number of Dcx^posBrdU^pos cells, lower compared to control mice (C3aR; SVZ, P<0.05): 12.5%
- fraction of Dcx^posBrdU^pos cells among the BrdU^pos cells (C3aR; SVZ, control 31.4±1.2%, P<0.005): 26.4±0.8%
- number of BrdU^pos cells (C3aR; any of the regions (SVZ, dentate gyrus subgranular zone, olfactory bulb)): not affected
- number of Dcx^posBrdU^pos cells, lower compared to control mice (C3aR; dentate gyrus subgranular zone, P<0.0005): 27%
- fraction of NeuN^posBrdU^pos cells among the BrdU^pos cells (C3aR; dentate gyrus subgranular zone, control 2.3±0.2%, P<0.05): 1.7±0.1%
- fraction of Dcx^posBrdU^pos cells among the BrdU^pos cells (C3aR; dentate gyrus subgranular zone, control 17.3±0.8%, P<0.0005): 13.1±0.6%
- reduction in the number of NeuN^posBrdU^pos cells (C3aR; olfactory bulb and dentate gyrus subgranular zone, P<0.005): 22-25%
- number of Dcx^posBrdU^pos cells, lower compared to control mice (C3aR; olfactory bulb, P<0.0005): 34%
- fraction of NeuN^posBrdU^pos cells among the BrdU^pos cells (C3aR; olfactory bulb, control 1.7±0.1%, P<0.005): 1.2±0.1%
- fraction of Dcx^posBrdU^pos cells among the BrdU^pos cells (C3aR; olfactory bulb, control 26.7±1.7%, P<0.005): 19.0±1.1%
- inhibition of the C3aR agonist effect on neural stem cell differentiation ([1]; SB290157 5-10 μM, given prior to or with C3a 10 or 100 nM): not effective
- % of MAP2+ Cells Among All DAPI+ Cells (Mean ± SEM) ([1]; SD290157 5 μM alone, culture medium alone 2.54 ± 0.12): 2.70 ± 0.19%

Molecule: COc1ccccc1Oc1c(NS(=O)(=O)c2ccc(C(C)(C)C)cc2)nc(-c2ncccn2)nc1OCCO [Bosenthan]
- effect on astrocyte hypertrophy (ETBR; ETBR antagonist in CNS trauma): reduced astrocyte hypertrophy

Molecule: endothelin 1: endothelin peptide, an ETBR agonist (CSCSSLMDKECVYFCHLDIIW; disulfide 1-15, 3-11; ends not checked; UniProt P05305 53-73, looked up)
- effect on astrocyte hypertrophy (ETBR; ETBR agonist administration): leads to astrocyte hypertrophy
